Literature values in PMC6024518 (International Journal of Immunopathology and Pharmacology, 2018).

Tested on: SYK, JAK1, JAK2, JAK3 and other kinases
Conditions: including JAK2

In the case of `COc1cc(Nc2ncc(F)c(Nc3ccc4c(n3)NC(=O)C(C)(C)O4)n2)cc(OC)c1OC` [R406], the “number of kinases inhibited more potently than SYK” value is listed as 24.
